# Measured values reported in patent publication US4971967A, “Quinolinecarboxylic acid derivatives, antibacterial compositions and use” (Kanebo Ltd, priority 1989, dated 1990).
# Read-outs that look alike come from different tables or passages of the source.
# Tests used:
# [1] = system: Staphylococcus aureus IID 803; test: Antibacterial activity (MIC), S. aureus IID 803; format: cell-based
# In short: (§1)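 Read-out is the MIC, obtained by the standard Japan Society of Chemotherapy method from 1000 μg/ml standard solutions made in sterile water.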
# [2] = system: Pseudomonas aeruginosa NCTC 10490; test: Antibacterial activity (MIC), P. aeruginosa NCTC 10490; format: cell-based; conditions: Pseudomonas aeruginosa, NCTC10490, Pseudomonas aeruginosa NCTC 10490, Gram -; read-out: Minimum inhibitory concentration (MIC)
# In short: as §1
# [3] = system: Acinetobacter calcoaceticus AC 54; test: Antibacterial activity (MIC), Acinetobacter calcoaceticus AC 54; format: cell-based; conditions: Acinetobacter calcoaceticus, AC54, read-out: Minimum inhibitory concentration (MIC), Acinetobacter calcoaceticus AC 54, Gram -
# In short: as §1
# Escherichia coli KC-14 = test: Antibacterial activity (MIC), E. coli KC-14; format: cell-based; conditions: KC14; Escherichia coli KC-14, Gram -; read-out: Minimum inhibitory concentration (MIC)
# In short: as §1
# [4] = system: Escherichia coli NIHJ JC-2; test: Antibacterial activity (MIC), E. coli NIHJ JC-2; format: cell-based; conditions: NIHJJC2; Escherichia coli NIHJ JC-2, Gram -; read-out: Minimum inhibitory concentration (MIC)
# In short: as §1
# [5] = system: Staphylococcus aureus FDA 209P JC-1; test: Antibacterial activity (MIC), S. aureus FDA 209P JC-1; format: cell-based; conditions: FDA209P, read-out: Minimum inhibitory concentration (MIC)
# In short: as §1
# [6] = system: Salmonella typhimurium IID 971; test: Antibacterial activity (MIC), Salmonella typhimurium IID 971; format: cell-based; conditions: Salmonella enterica; Salmonella typhimurium IID 971, Gram -; read-out: Minimum inhibitory concentration (MIC)
# In short: as §1
# [7] = system: Staphylococcus aureus IID 803; test: Effect on treatment of general infectious disease, S. aureus IID 803 (Experiment 3); format: in vivo, ddY male mice infected with Staphylococcus aureus; conditions: IID803, 168 h, oral, 1 h after i.p. infection, 5.0×10^7 CFU/mouse, survival after one week
# Description: Staphylococcus aureus IID 803 (5.0×10^7 CFU/mouse)
# The test microorganisms were subjected to standing culture in Trypto-Soya Agar "Nissui" (made by Nissui Seiyaku K.K., Japan) at 37° C. for 16 to 18 hours. The culture was then diluted with PBS (Dulbecco's phosphate buffered saline) and mixed with an equivalent amount of 10% (w/v) Mucin (BACTO MUCIN BACTERIOLOGICAL, made by Difco Co.) to prepare a microorganism solution. The thus prepared microorganism solution (0.5 ml each) was intraperitoneally inoculated to ddY male mice (5 weeks age, weighing 25-28 g, 5 mice in each group), to infect the animals. One hour after the infection, the compound (A) or (J) of the present invention or the known compound (X) suspended in 1% (w/v) aqueous gum arabic or the known compound (Y) dissolved in sterilized distilled water was orally adiministered to mice.
# The mice were daily observed for one week, and from the survival number of mice after one week, the 50% effective dose (ED50) was calculated by Weil method.
# [8] = system: Citrobacter freundii NIHJ 10018-68; test: Antibacterial activity (MIC), Citrobacter freundii NIHJ 10018-68; format: cell-based; conditions: Citrobacter freundii, NIHJ10018, Citrobacter freundii NIHJ 10018-68, Gram -; read-out: Minimum inhibitory concentration (MIC)
# In short: as §1
# [9] = system: Streptococcus faecalis IID 682; test: Antibacterial activity (MIC), Streptococcus faecalis IID 682; format: cell-based; conditions: Enterococcus faecalis, IID682, Streptococcus faecalis IID 682, Gram +; read-out: Minimum inhibitory concentration (MIC)
# In short: as §1
SMILES,"MIC ([1]; IID803, Staphylococcus aureus IID 803, Gram +, read-out: Minimum inhibitory concentration (MIC)) [µg/mL]",MIC [2] [µg/mL],MIC [3] [µg/mL],MIC (Escherichia coli KC-14) [µg/mL],MIC [4] [µg/mL],"MIC ([5]; Staphylococcus aureus FDA 209P JC-1, Gram +) [µg/mL]",MIC [6] [µg/mL],ED50 [7] [mg/kg],MIC [8] [µg/mL],MIC [9] [µg/mL],"MIC ([1]; Staphylococcus aureus, IID803, read-out: Minimum inhibitory concentration (MIC)) [µg/mL]",MIC ([5]; Staphylococcus aureus) [µg/mL]
"CN1CCN(c2c(F)cc3c(=O)c(C(=O)O)c4scc5n4c3c2N(C)C5)CC1 [Compound (A), 9,1-(Methylimino)methano-7-fluoro-8-(4-methyl-1-piperazinyl)-5-oxo-5H-thiazolo[3,2-a]quinoline-4-carboxylic acid]",0.05,0.2,0.025,0.05,0.05,0.05,0.05,5.8,0.2,0.1,–,–
"CCN1CCN(c2c(F)cc3c(=O)c(C(=O)O)c4scc5n4c3c2N(C)C5)CC1 [Compound (J), 9,1-(Methylimino)methano-7-fluoro-8-(4-ethyl-1-piperazinyl)-5-oxo-5H-thiazolo[3,2-a]quinoline-4-carboxylic acid]",–,0.39,–,–,0.1,–,–,5.8,0.39,0.1,0.05,0.05
